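Compound exposure: 48 hours, 5 concentrations, 96-well plates. GI50 = concentration required for 50% inhibition of growth.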 Activity calls are given as the source filed them. Cut-off read from the data, not from the text of the source: active = GI50 up to about 1.1 µM and inactive = higher.
Columns and labels:
Assay in all cases: growth of human tumour cells (NCI), 48 h
NCI-H522 = tested on: NCI-H522
UACC-62 = tested on: UACC-62
KM12 = tested on: KM12
NCI-H460 = tested on: NCI-H460
SF-268 = tested on: SF-268
CAKI-1 = tested on: CAKI-1
K562 = tested on: K562
HL-60 = tested on: HL-60
DU-145 = tested on: DU-145
NCI-H23 = tested on: NCI-H23
Hs-578T = tested on: Hs-578T
SK-MEL-28 = tested on: SK-MEL-28
RPMI-8226 = tested on: RPMI-8226
SNB-75 = tested on: SNB-75
MOLT-4 = tested on: MOLT-4
SK-MEL-5 = tested on: SK-MEL-5
NCI-H226 = tested on: NCI-H226
HOP-62 = tested on: HOP-62
MDA-MB-435 = tested on: MDA-MB-435
HCC 2998 = tested on: HCC 2998

Row | SMILES | GI50 (NCI-H522) | GI50 (UACC-62) | GI50 (KM12) | GI50 (NCI-H460) | GI50 (SF-268) | GI50 (CAKI-1) | GI50 (K562) | GI50 (HL-60) | GI50 (DU-145) | GI50 (NCI-H23) | GI50 (Hs-578T) | GI50 (SK-MEL-28) | GI50 (RPMI-8226) | GI50 (SNB-75) | GI50 (MOLT-4) | GI50 (SK-MEL-5) | GI50 (NCI-H226) | GI50 (HOP-62) | GI50 (MDA-MB-435) | GI50 (HCC 2998)
1 | O=C(O)C(=Cc1ccnc2ccccc12)C(=O)O | > 100 µM (inactive) | > 100 µM (inactive) | > 100 µM (inactive) | > 100 µM (inactive) | > 100 µM (inactive) | > 100 µM (inactive) | > 100 µM (inactive) | > 100 µM (inactive) | > 100 µM (inactive) | > 100 µM (inactive) | > 100 µM (inactive) | > 100 µM (inactive) | > 100 µM (inactive) | > 100 µM (inactive) | > 100 µM (inactive) | > 100 µM (inactive) | > 100 µM (inactive) | > 100 µM (inactive) |  | 
2 | CCCCC1Cc2cc(OC)ccc2-c2nc3cc(OC)ccc3n21.CCCCC1Cc2cc(OC)ccc2-c2nc3ccc(OC)cc3n21 (stereo unspecified) | 7.67 µM (inactive) | 12.9 µM (inactive) | 18.7 µM (inactive) | 15.4 µM (inactive) | 17.6 µM (inactive) | 15.6 µM (inactive) | 10.5 µM (inactive) | 13.8 µM (inactive) | 16.4 µM (inactive) | 14.7 µM (inactive) | 12.7 µM (inactive) |  | 6.81 µM (inactive) |  | 10.2 µM (inactive) | 14.3 µM (inactive) | 14 µM (inactive) | 15.7 µM (inactive) | 13.2 µM (inactive) | 
3 | COc1ccc(O[C@H](COCc2ccccc2)C[C@@H]2COC(C)(C)O2)cc1 | > 100 µM (inactive) | > 100 µM (inactive) | > 100 µM (inactive) | > 100 µM (inactive) | > 100 µM (inactive) | > 100 µM (inactive) | > 100 µM (inactive) |  | > 100 µM (inactive) | > 100 µM (inactive) |  | > 100 µM (inactive) | > 100 µM (inactive) | > 100 µM (inactive) | > 100 µM (inactive) | > 100 µM (inactive) | > 100 µM (inactive) | > 100 µM (inactive) | > 100 µM (inactive) | > 100 µM (inactive)
4 | Cc1ccc(N(C)S(=O)(=O)c2ccccc2[N+](=O)[O-])cc1 | 24.6 µM (inactive) |  | 29.4 µM (inactive) | 32.5 µM (inactive) | 48.4 µM (inactive) | 48.2 µM (inactive) |  | > 100 µM (inactive) | 98.4 µM (inactive) | 40.4 µM (inactive) |  | 44.9 µM (inactive) | 33.9 µM (inactive) |  |  |  | 27.3 µM (inactive) | 49.1 µM (inactive) | 29.2 µM (inactive) | 
5 | CC(=O)O/C=C1/C[C@H]2[C@@H]3CCC4CC(C(C)=O)CC[C@]4(C)[C@H]3CC[C@]2(C)C1=O (stereo partly specified) | > 100 µM (inactive) | > 100 µM (inactive) | 33.7 µM (inactive) | > 100 µM (inactive) | > 100 µM (inactive) | > 100 µM (inactive) | 36.4 µM (inactive) | 11.9 µM (inactive) | > 100 µM (inactive) | 81.7 µM (inactive) |  | > 100 µM (inactive) |  |  | 39.1 µM (inactive) | 47.2 µM (inactive) | > 100 µM (inactive) | > 100 µM (inactive) | > 100 µM (inactive) | > 100 µM (inactive)
6 | CC[C@@]1(C[C@H]2C[C@@]3(C(=O)OC)c4[nH]c5ccccc5c4CCN3C2=O)COC2(CCCCC2)O1 | 37.1 µM (inactive) | 23.5 µM (inactive) | 19.9 µM (inactive) | 24.3 µM (inactive) | 30.3 µM (inactive) | 36.2 µM (inactive) | 23.6 µM (inactive) | 18.9 µM (inactive) | 41.8 µM (inactive) | 24.2 µM (inactive) | 18.9 µM (inactive) |  |  | 46.8 µM (inactive) | 16.6 µM (inactive) | 13.5 µM (inactive) |  | 22.3 µM (inactive) |  | 21.2 µM (inactive)
7 | COc1cc(C2SCC(=O)N2c2ccc(Cl)cc2)cc(OC)c1OC (stereo unspecified) | 31.8 µM (inactive) | < 0.0205 µM (active) | 3.38 µM (inactive) | 3.7 µM (inactive) | 97.5 µM (inactive) | 10.4 µM (inactive) | 0.11 µM (active) | 2.46 µM (inactive) |  | 26.2 µM (inactive) | > 100 µM (inactive) | > 72.9 µM (inactive) | 8.93 µM (inactive) | > 100 µM (inactive) | 1.69 µM (inactive) | 1.26 µM (inactive) | > 49.1 µM (inactive) | 21.1 µM (inactive) | 0.635 µM (active) | > 30.2 µM (inactive)
8 | COc1ccc2c(O)c(Oc3ccc(Cl)cc3)c(=O)oc2c1 | > 100 µM (inactive) |  | > 100 µM (inactive) | > 100 µM (inactive) | > 100 µM (inactive) | 54.3 µM (inactive) | > 100 µM (inactive) | > 100 µM (inactive) | 90.4 µM (inactive) | > 100 µM (inactive) | > 100 µM (inactive) | > 100 µM (inactive) | > 100 µM (inactive) | 99.5 µM (inactive) | > 100 µM (inactive) | > 100 µM (inactive) | > 100 µM (inactive) | > 100 µM (inactive) |  | 75.7 µM (inactive)
9 | O=C(/N=N/c1cccc(Cl)c1)NNc1cccc(Cl)c1 | 21.9 µM (inactive) | 9.25 µM (inactive) |  | 15.5 µM (inactive) | 24.7 µM (inactive) | 18.1 µM (inactive) | 10.6 µM (inactive) | 16.7 µM (inactive) | 17.5 µM (inactive) | 26.2 µM (inactive) |  | 20.1 µM (inactive) | 8.36 µM (inactive) | 28.5 µM (inactive) | 10.9 µM (inactive) | 17.9 µM (inactive) | 23.9 µM (inactive) | 5.3 µM (inactive) | 11.5 µM (inactive) | 14.7 µM (inactive)
10 | COc1ccc(C(Cc2ccccc2)C2NC(=S)NC2=O)cc1 (stereo unspecified) | > 25 µM (inactive) |  | > 25 µM (inactive) | > 25 µM (inactive) | > 25 µM (inactive) | > 25 µM (inactive) | > 25 µM (inactive) | > 25 µM (inactive) | > 25 µM (inactive) | > 25 µM (inactive) | > 25 µM (inactive) | > 25 µM (inactive) | > 25 µM (inactive) | > 25 µM (inactive) | > 25 µM (inactive) | > 25 µM (inactive) | > 25 µM (inactive) | > 25 µM (inactive) | > 25 µM (inactive) | 
11 | Cc1ccc(NC(=O)C(=O)CC(=O)c2c(C)[n+]([O-])c3ccccc3[n+]2[O-])cc1 | 20.9 µM (inactive) | 17.7 µM (inactive) | 29.2 µM (inactive) | 27.9 µM (inactive) | 35.8 µM (inactive) | 79.1 µM (inactive) | 21.5 µM (inactive) | 19.3 µM (inactive) |  | 20.3 µM (inactive) |  | 46.6 µM (inactive) | 24.4 µM (inactive) | 23.6 µM (inactive) | 23.4 µM (inactive) | 26.8 µM (inactive) | > 100 µM (inactive) | > 100 µM (inactive) |  | 44 µM (inactive)
12 | CCOC(=O)CCCc1cc(O)c2c(C)c3[nH]c4ccc(Cl)cc4c3c(C)c2n1 |  |  | 37.2 µM (inactive) | 16.5 µM (inactive) | 26.2 µM (inactive) | 24.9 µM (inactive) | 26.1 µM (inactive) | 24 µM (inactive) | 23.8 µM (inactive) | 50.2 µM (inactive) |  | 28.3 µM (inactive) | 32.6 µM (inactive) | 25.9 µM (inactive) | 49.8 µM (inactive) | 19.8 µM (inactive) | 19.1 µM (inactive) | 20.7 µM (inactive) | 18.5 µM (inactive) | 44.4 µM (inactive)
13 | CC(C)(C)OC(=O)N/N=C(/N)c1ccccc1 | > 100 µM (inactive) | > 100 µM (inactive) | > 100 µM (inactive) | > 100 µM (inactive) | > 100 µM (inactive) | > 100 µM (inactive) | > 100 µM (inactive) | 6.55 µM (inactive) | > 100 µM (inactive) | > 100 µM (inactive) |  | > 100 µM (inactive) | > 100 µM (inactive) | > 100 µM (inactive) | > 100 µM (inactive) | > 100 µM (inactive) | > 100 µM (inactive) | > 100 µM (inactive) | > 100 µM (inactive) | > 100 µM (inactive)
14 | Nc1c(S(=O)(=O)O)cc(S(=O)(=O)O)c2ccc(/N=N/c3ccccc3)c(O)c12 | > 100 µM (inactive) | > 100 µM (inactive) | > 100 µM (inactive) | > 100 µM (inactive) | > 100 µM (inactive) | > 100 µM (inactive) | 43.3 µM (inactive) | > 100 µM (inactive) | > 100 µM (inactive) | > 100 µM (inactive) | > 100 µM (inactive) | > 100 µM (inactive) | > 100 µM (inactive) | > 100 µM (inactive) |  | > 100 µM (inactive) | > 100 µM (inactive) | > 100 µM (inactive) | > 100 µM (inactive) | 
15 | O=C(NC1CCN(Cc2ccccc2)CC1)c1ccc(I)cc1 | 63.5 µM (inactive) | 59.4 µM (inactive) | > 100 µM (inactive) | > 100 µM (inactive) | 63.8 µM (inactive) | 70.1 µM (inactive) | 42.4 µM (inactive) | > 100 µM (inactive) | 91.6 µM (inactive) | 94.2 µM (inactive) | 33.2 µM (inactive) | 63.2 µM (inactive) | 63.5 µM (inactive) |  | > 100 µM (inactive) | 17.7 µM (inactive) | 33.4 µM (inactive) | 55.6 µM (inactive) | 33.3 µM (inactive) | 

Reference: ChEMBL document CHEMBL1201862, “PubChem BioAssay data set” (2004)
